Source: patent US11603355B2, “Charged ion channel blockers and methods for use” (Nocion Therapeutics, Inc., priority 2019, dated 2023)

What was measured:
NaV1.7 = target: T1, NaV1.7 (Homo sapiens, UniProt Q15858); test: Automated patch clamp (Qube 384), internal block of NaV1.7; type: cell-based; settings: IC50, compound in internal solution, HEK293 cells, read-out: Nav1.7 Intracellular Inhibition
T1 construct: expressed in transfected cells; host or cells: HEK293 (tetracycline-inducible)
In short: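 Tetracycline-induced HEK293 cells, whole-cell Qube recording at 22 degrees; compounds dissolved in internal solution (CsF-based, pH 7.3), exchanged after baseline. Held at −100 mV, 10 ms pulses to −20 mV at 5 Hz for 10 min; remaining current (last 3 points) vs baseline, rundown-corrected with no-drug cells; Hill-fit IC50.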

[1] = PAMPA membrane permeability assay; type: in vitro ADME; settings: permeability coefficient, pH 7.4 buffer, GIT lipid, 4 hours incubation
In short: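 Passive diffusion across a GIT-lipid-painted artificial membrane at pH 7.4, with a 50 uM donor stock diluted from DMSO and a 4 h incubation. UV spectra of the donor, acceptor and reference plates were read, and the permeability coefficient was calculated from the AUCs, in 10^−6 cm/s.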

T1 sequence (Q15858 whole entry): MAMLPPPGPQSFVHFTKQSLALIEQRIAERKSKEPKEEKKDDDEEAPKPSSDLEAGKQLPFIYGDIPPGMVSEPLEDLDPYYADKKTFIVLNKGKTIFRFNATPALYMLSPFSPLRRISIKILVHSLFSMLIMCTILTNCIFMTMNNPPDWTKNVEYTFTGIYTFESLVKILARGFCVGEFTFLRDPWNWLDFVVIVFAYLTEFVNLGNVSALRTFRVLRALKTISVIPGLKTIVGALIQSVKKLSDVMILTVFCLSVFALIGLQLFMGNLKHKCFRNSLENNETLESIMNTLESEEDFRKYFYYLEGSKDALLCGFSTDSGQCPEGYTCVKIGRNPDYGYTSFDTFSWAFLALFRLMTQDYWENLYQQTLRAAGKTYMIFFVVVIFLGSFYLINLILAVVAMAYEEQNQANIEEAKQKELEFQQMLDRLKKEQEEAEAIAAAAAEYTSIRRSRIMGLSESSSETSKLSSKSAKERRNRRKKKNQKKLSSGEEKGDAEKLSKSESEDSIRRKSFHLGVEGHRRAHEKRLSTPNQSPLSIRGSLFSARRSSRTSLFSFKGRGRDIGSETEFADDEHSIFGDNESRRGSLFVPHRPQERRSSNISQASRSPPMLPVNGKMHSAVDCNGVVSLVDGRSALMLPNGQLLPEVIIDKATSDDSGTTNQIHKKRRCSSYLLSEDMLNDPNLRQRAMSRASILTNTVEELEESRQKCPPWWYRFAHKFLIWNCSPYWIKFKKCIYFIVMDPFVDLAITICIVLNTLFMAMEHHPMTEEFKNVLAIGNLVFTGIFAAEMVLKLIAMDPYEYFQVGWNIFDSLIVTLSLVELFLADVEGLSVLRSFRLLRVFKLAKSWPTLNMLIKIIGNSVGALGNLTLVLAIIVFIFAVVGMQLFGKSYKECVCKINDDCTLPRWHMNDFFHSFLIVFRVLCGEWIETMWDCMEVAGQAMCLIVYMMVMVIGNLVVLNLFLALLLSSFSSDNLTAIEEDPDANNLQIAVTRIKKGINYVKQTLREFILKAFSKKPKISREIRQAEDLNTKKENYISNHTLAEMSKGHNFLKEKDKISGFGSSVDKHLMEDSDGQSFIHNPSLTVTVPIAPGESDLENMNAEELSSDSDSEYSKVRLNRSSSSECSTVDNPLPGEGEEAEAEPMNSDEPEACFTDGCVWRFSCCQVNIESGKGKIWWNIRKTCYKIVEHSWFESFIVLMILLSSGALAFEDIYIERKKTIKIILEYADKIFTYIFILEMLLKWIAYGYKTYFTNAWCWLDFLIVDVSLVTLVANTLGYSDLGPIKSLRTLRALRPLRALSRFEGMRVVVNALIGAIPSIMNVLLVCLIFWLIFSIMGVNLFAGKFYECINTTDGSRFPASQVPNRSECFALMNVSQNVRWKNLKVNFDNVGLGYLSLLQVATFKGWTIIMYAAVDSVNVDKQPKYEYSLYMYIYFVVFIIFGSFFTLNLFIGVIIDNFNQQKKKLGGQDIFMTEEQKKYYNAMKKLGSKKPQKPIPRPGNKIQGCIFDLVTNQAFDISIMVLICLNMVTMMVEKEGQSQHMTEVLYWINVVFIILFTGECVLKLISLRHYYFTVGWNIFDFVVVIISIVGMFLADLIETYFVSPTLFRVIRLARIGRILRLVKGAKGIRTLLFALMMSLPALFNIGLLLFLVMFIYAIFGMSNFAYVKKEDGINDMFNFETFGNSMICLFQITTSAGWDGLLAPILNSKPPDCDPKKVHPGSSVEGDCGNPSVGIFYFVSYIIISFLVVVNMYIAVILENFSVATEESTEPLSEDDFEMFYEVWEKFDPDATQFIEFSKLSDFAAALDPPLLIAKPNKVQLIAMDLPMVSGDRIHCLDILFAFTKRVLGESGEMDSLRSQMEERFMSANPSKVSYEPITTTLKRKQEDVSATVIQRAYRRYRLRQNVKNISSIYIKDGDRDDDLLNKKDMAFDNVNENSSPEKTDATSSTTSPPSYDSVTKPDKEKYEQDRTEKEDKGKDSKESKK

Row | Structure (SMILES) | IC50 (NaV1.7) [nM] | PAMPA (10^−6 cm/s) [1]
1 | [2H]c1c([2H])c([2H])c(C[N+]2(CC(=O)Nc3c(C)cccc3C)CCCCCC2)c([2H])c1[2H].[Cl-] [Compound 33A, 1-(2-((2,6-dimethylphenyl)amino)-2-oxoethyl)-1-((phenyl-d5)methyl) azepan-1-ium chloride] | 300 to 1000 | + (“+” (<0.1 10^−6 cm/s))
2 | Cc1cccc(-c2ccccc2)c1NC(=O)C[N+]1(Cc2ccccc2)CCCCCC1.[Br-] [Compound 76A] | 1000 to 3000 | + (“+” (<0.1 10^−6 cm/s))
3 | Cc1cccc(C(C)C)c1NC(=O)C[N+]1(Cc2ccccc2)CCCCCC1.[Br-] [Compound 74A] | 300 to 1000 | + (“+” (<0.1 10^−6 cm/s))
4 | CCC(=O)OC1CCC[N+](CC(=O)Nc2c(C)cccc2C)(Cc2ccccc2)C1.[Br-] (stereo not shown) [Compound 52A, 1-benzyl-1-(2-((2,6-dimethylphenyl)amino)-2-oxoethyl)-3-(propionyloxy) piperidin-1-ium bromide] | < 300 | + (“+” (<0.1 10^−6 cm/s))
5 | COc1cccc(C)c1NC(=O)C[N+]1(Cc2ccccc2)CCCCCC1 [Compound 71A] | 300 to 1000 | + (“+” (<0.1 10^−6 cm/s))
6 | Cc1cccc(C)c1NC(=O)C[N+]1(Cc2ccccc2)CCCC(C(=O)N(C)C)C1.[Br-] (stereo not shown) [Compound 65A] | 300 to 1000 | + (“+” (<0.1 10^−6 cm/s))
7 | Cc1cccc(C#N)c1NC(=O)C[N+]1(Cc2ccccc2)CCCCCC1.[Br-] [Compound 72A] | 300 to 1000 | + (“+” (<0.1 10^−6 cm/s))
8 | Cc1cccc(C)c1NC(=O)C[N+]1(Cc2ccccc2)CCCC(C(=O)NC(C)C)C1 (stereo not shown) [Compound 56A] | 1000 to 3000 | + (“+” (<0.1 10^−6 cm/s))
